These are literature values, as cited in patent US10799550B2, “Oral compositions comprising beta-escin for reducing acetaldehyde toxicity” (ESCILAB SP. Z O.O., priority 2016, dated 2020).

The data set has as its system ethanol absorption. The settings on record: rats.

Take `C/C=C(\C)C(=O)O[C@H]1[C@H](OC(C)=O)[C@]2(CO)[C@H](O)C[C@]3(C)C(=CC[C@@H]4[C@@]5(C)CC[C@H](O[C@@H]6O[C@H](C(=O)O)[C@@H](O[C@@H]7O[C@H](CO)[C@@H](O)[C@H](O)[C@H]7O)[C@H](O)[C@H]6O[C@@H]6OC[C@@H](O)[C@H](O)[C@H]6O)[C@](C)(CO)[C@@H]5CC[C@]43C)[C@@H]2CC1(C)C` [escin IIa]: the “effect on ethanol absorption” value is recorded as “inhibitory effect”.

With `C/C=C(/C)C(=O)O[C@H]1[C@H](OC(C)=O)[C@]2(CO)[C@H](O)C[C@]3(C)C(=CC[C@@H]4[C@@]5(C)CC[C@H](O[C@@H]6O[C@H](C(=O)O)[C@@H](O[C@@H]7O[C@H](CO)[C@@H](O)[C@H](O)[C@H]7O)[C@H](O)[C@H]6O[C@@H]6OC[C@@H](O)[C@H](O)[C@H]6O)[C@](C)(CO)[C@@H]5CC[C@]43C)[C@@H]2CC1(C)C` [escin IIb], the “effect on ethanol absorption” value is reported as “inhibitory effect”.

For the molecule `C/C=C(\C)C(=O)O[C@H]1[C@H](OC(C)=O)[C@]2(CO)[C@H](O)C[C@]3(C)C(=CC[C@@H]4[C@@]5(C)CC[C@H](O[C@@H]6O[C@H](C(=O)O)[C@@H](O[C@@H]7O[C@H](CO)[C@@H](O)[C@H](O)[C@H]7O)[C@H](O)[C@H]6O[C@@H]6O[C@H](CO)[C@@H](O)[C@H](O)[C@H]6O)[C@](C)(CO)[C@@H]5CC[C@]43C)[C@@H]2CC1(C)C` [escin Ia], the “effect on ethanol absorption” value is recorded as “inhibitory effect”.

Turning to `C/C=C(/C)C(=O)O[C@H]1[C@H](OC(C)=O)[C@]2(CO)[C@H](O)C[C@]3(C)C(=CC[C@@H]4[C@@]5(C)CC[C@H](O[C@@H]6O[C@H](C(=O)O)[C@@H](O[C@@H]7O[C@H](CO)[C@@H](O)[C@H](O)[C@H]7O)[C@H](O)[C@H]6O[C@@H]6O[C@H](CO)[C@@H](O)[C@H](O)[C@H]6O)[C@](C)(CO)[C@@H]5CC[C@]43C)[C@@H]2CC1(C)C` [escin Ib], the “effect on ethanol absorption” value is recorded as “inhibitory effect”.
